Test results from ChEMBL document CHEMBL1201862, “PubChem BioAssay data set” (2004).
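48-hour exposure; five concentrations; linearly interpolated endpoints. GI50 marks 50% less growth.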 Active and inactive are the calls of the source. Cut-off read from the data, not from the text of the source: active = GI50 up to about 1.1 µM and inactive = higher.

Legend:
Experiment in all cases: NCI-60 cell line screen, 48 h
M14 = test system: M14
HT-29 = test system: HT-29
MDA-N = test system: MDA-N
NCI-H522 = test system: NCI-H522
HCC 2998 = test system: HCC 2998
K562 = test system: K562
EKVX = test system: EKVX
Hs-578T = test system: Hs-578T
COLO 205 = test system: COLO 205
U-251 = test system: U-251
SF-539 = test system: SF-539
BT-549 = test system: BT-549
SNB-75 = test system: SNB-75
OVCAR-8 = test system: OVCAR-8
OVCAR-5 = test system: OVCAR-5
RPMI-8226 = test system: RPMI-8226
KM12 = test system: KM12
SK-MEL-5 = test system: SK-MEL-5
CAKI-1 = test system: CAKI-1
NCI-H460 = test system: NCI-H460

O=C(O)CCCCn1ccc(=O)[nH]c1=O
GI50 (M14): > 100 µM (inactive) | GI50 (HT-29): > 100 µM (inactive) | GI50 (MDA-N): > 100 µM (inactive) | GI50 (NCI-H522): > 100 µM (inactive) | GI50 (HCC 2998): > 100 µM (inactive) | GI50 (K562): > 100 µM (inactive) | GI50 (EKVX): > 100 µM (inactive) | GI50 (Hs-578T): > 100 µM (inactive) | GI50 (COLO 205): > 100 µM (inactive) | GI50 (U-251): > 100 µM (inactive) | GI50 (SF-539): > 100 µM (inactive) | GI50 (BT-549): > 100 µM (inactive) | GI50 (SNB-75): > 100 µM (inactive) | GI50 (OVCAR-8): > 100 µM (inactive) | GI50 (OVCAR-5): > 100 µM (inactive) | GI50 (RPMI-8226): > 100 µM (inactive) | GI50 (KM12): > 100 µM (inactive) | GI50 (SK-MEL-5): > 100 µM (inactive) | GI50 (CAKI-1): > 100 µM (inactive) | GI50 (NCI-H460): > 100 µM (inactive)

C#C[C@@H](OC(=O)c1ccc([N+](=O)[O-])cc1)[C@@H]1C[C@H]2O[C@@H]([C@H](C/C=C/CC)OC(=O)c3ccc([N+](=O)[O-])cc3)C[C@H]2O1
GI50 (M14): > 100 µM (inactive) | GI50 (HT-29): > 100 µM (inactive) | GI50 (MDA-N): > 100 µM (inactive) | GI50 (NCI-H522): 32.6 µM (inactive) | GI50 (HCC 2998): > 100 µM (inactive) | GI50 (K562): > 100 µM (inactive) | GI50 (EKVX): > 100 µM (inactive) | GI50 (Hs-578T): > 100 µM (inactive) | GI50 (COLO 205): > 100 µM (inactive) | GI50 (U-251): > 100 µM (inactive) | GI50 (SF-539): > 100 µM (inactive) | GI50 (BT-549): > 100 µM (inactive) | GI50 (SNB-75): > 100 µM (inactive) | GI50 (OVCAR-8): > 100 µM (inactive) | GI50 (OVCAR-5): > 100 µM (inactive) | GI50 (RPMI-8226): > 100 µM (inactive) | GI50 (KM12): > 100 µM (inactive) | GI50 (SK-MEL-5): > 100 µM (inactive) | GI50 (CAKI-1): > 100 µM (inactive) | GI50 (NCI-H460): > 100 µM (inactive)

C=C1C[C@@H](O)[C@@H](Br)C(C)(C)[C@]12CCC(C)(Br)C(Cl)C2 (stereo not given in full)
GI50 (M14): > 50 µM (inactive) | GI50 (HT-29): 6.1 µM (inactive) | GI50 (MDA-N): > 50 µM (inactive) | GI50 (NCI-H522): > 50 µM (inactive) | GI50 (HCC 2998): > 50 µM (inactive) | GI50 (K562): > 50 µM (inactive) | GI50 (EKVX): 25.4 µM (inactive) | GI50 (Hs-578T): > 50 µM (inactive) | GI50 (COLO 205): 0.791 µM (active) | GI50 (U-251): > 50 µM (inactive) | GI50 (SF-539): > 50 µM (inactive) | GI50 (BT-549): > 50 µM (inactive) | GI50 (SNB-75): > 50 µM (inactive) | GI50 (OVCAR-8): > 50 µM (inactive) | GI50 (OVCAR-5): 1.7 µM (inactive) | GI50 (RPMI-8226): 43.9 µM (inactive) | GI50 (KM12): 1.07 µM (active) | GI50 (SK-MEL-5): > 50 µM (inactive) | GI50 (CAKI-1): > 50 µM (inactive) | GI50 (NCI-H460): > 50 µM (inactive)

CSc1cc(-c2ccccn2)nc(-c2ccccn2)c1
GI50 (M14): 0.0695 µM (active) | GI50 (HT-29): 0.149 µM (active) | GI50 (MDA-N): 0.452 µM (active) | GI50 (NCI-H522): 0.385 µM (active) | GI50 (HCC 2998): 0.0518 µM (active) | GI50 (K562): 0.248 µM (active) | GI50 (EKVX): 0.0906 µM (active) | GI50 (Hs-578T): 3.1 µM (inactive) | GI50 (COLO 205): 0.125 µM (active) | GI50 (U-251): 0.0766 µM (active) | GI50 (SF-539): 0.171 µM (active) | GI50 (BT-549): 0.0536 µM (active) | GI50 (SNB-75): 0.689 µM (active) | GI50 (OVCAR-8): 0.0845 µM (active) | GI50 (OVCAR-5): 0.179 µM (active) | GI50 (RPMI-8226): 0.383 µM (active) | GI50 (KM12): 0.124 µM (active) | GI50 (SK-MEL-5): 0.126 µM (active) | GI50 (CAKI-1): 0.065 µM (active) | GI50 (NCI-H460): 0.0541 µM (active)

N#Cc1c(-c2nc3ccccc3s2)c(=O)oc2cc(O)ccc12
GI50 (M14): 35.2 µM (inactive) | GI50 (HT-29): 13 µM (inactive) | GI50 (MDA-N): 33.1 µM (inactive) | GI50 (NCI-H522): 13.2 µM (inactive) | GI50 (HCC 2998): 30.3 µM (inactive) | GI50 (K562): 31.8 µM (inactive) | GI50 (EKVX): 39.6 µM (inactive) | GI50 (Hs-578T): 20 µM (inactive) | GI50 (COLO 205): 13.3 µM (inactive) | GI50 (U-251): 18 µM (inactive) | GI50 (SF-539): > 100 µM (inactive) | GI50 (BT-549): 16.7 µM (inactive) | GI50 (SNB-75): > 100 µM (inactive) | GI50 (OVCAR-8): 32.1 µM (inactive) | GI50 (OVCAR-5): 52 µM (inactive) | GI50 (RPMI-8226): 13.1 µM (inactive) | GI50 (KM12): 22.3 µM (inactive) | GI50 (SK-MEL-5): 10.2 µM (inactive) | GI50 (CAKI-1): 17.5 µM (inactive) | GI50 (NCI-H460): 27.8 µM (inactive)

C[C@]12CC[C@H]3[C@@H](CC[C@]4(O)C[C@@H](O)CC[C@]34CO)[C@@]1(O)CC[C@@H]2C1=CC(=O)OC1 [STROPHANTHIDOL]
GI50 (M14): 3.01 µM (inactive) | GI50 (HT-29): 1.94 µM (inactive) | GI50 (MDA-N): 2.99 µM (inactive) | GI50 (NCI-H522): 0.447 µM (active) | GI50 (HCC 2998): 22.9 µM (inactive) | GI50 (K562): 2.21 µM (inactive) | GI50 (EKVX): 1.39 µM (inactive) | GI50 (Hs-578T): 1.46 µM (inactive) | GI50 (COLO 205): 3.73 µM (inactive) | GI50 (U-251): 2.7 µM (inactive) | GI50 (SF-539): 1.15 µM (inactive) | GI50 (BT-549): 1.51 µM (inactive) | GI50 (SNB-75): 4.02 µM (inactive) | GI50 (OVCAR-8): 1.77 µM (inactive) | GI50 (OVCAR-5): 3.07 µM (inactive) | GI50 (RPMI-8226): 1.95 µM (inactive) | GI50 (KM12): 3.66 µM (inactive) | GI50 (SK-MEL-5): 0.979 µM (active) | GI50 (CAKI-1): 0.494 µM (active) | GI50 (NCI-H460): 0.431 µM (active)
